From patent US9434739B2, “Systemic insecticide” (priority 2007, dated 2016)

Experiments:
Aphis gossypii = test: Soil drenching with single agent and admixture on cucumber against Aphis gossypii (Test Example 8); format: in vivo; settings: for Preventive value: 2 days after release
Method: Cucumber seedlings were treated by soil drenching with a single agent and an admixture adjusted to a predetermined concentration with water. The chemical was absorbed through the root for two days, and four adults of Aphis gossypii for each seedling were released on the seedlings. Thereafter, the seedlings were allowed to stand in a thermostatic chamber of 25° C. 2 days after the release, the number of parasites on the leaves was observed. The density index in each treated plot was determined by presuming the density in the non-treated plot to be 100. The preventive value was calculated by the following equation. Preventive value=100−density index
(§1) When the density index exceeded 100, the preventive value was regarded as 0 (zero).
(§2) Theoretical value=A+B−(A×B)/100 Colby's formula
(§3) where A: preventive value when treatment was performed only with compound 4, and
B: preventive value when treatment was performed only with each of acephate and imidacloprid.
When the numerical value for the admixture in Table 10 exceeded the theoretical value calculated by the Colby's formula shown in Table 11, the admixture was determined to have a synergistic effect.

Rhopalosiphum padi [1] = test: Root soaking with single agent and admixture on wheat against Rhopalosiphum padi (Test Example 9); format: in vivo; settings: for Preventive value: six days after release
Method: The root of wheat seedlings 48 hr after seeding was soaked for 72 hr in an admixture solution, adjusted to a predetermined concentration, as a 10% aqueous acetone solution. 72 hrs after the treatment, 10 larval Rhopalosiphum padi for each seedling were released on the seedlings. Thereafter, the seedlings were allowed to stand in a thermostatic chamber of 25° C. The number of parasites on stems and leaves was observed six days after the release. The density index of each of the treated plots was determined by presuming the density of the non-treated plots to be 100, and the preventive value was calculated by the same equation as in Test Example 8.
as §1, §2, §3
B: preventive value when treatment was performed only with each of acetamiprid, acephate, and imidacloprid.
When the preventive value against Rhopalosiphum padi for the admixture in Table 12 exceeded the theoretical value calculated by the Colby's formula shown in Table 13, the admixture was determined to have a synergistic effect.

Laodelphax stratella = test: Soil drenching treatment test on rice seedlings against Laodelphax stratella (Test Example 6); format: in vivo; settings: soil drenching of rice pot, 0.5 mg/seedling, second instar larvae, 3 days after release
Method: (§4) Rice seedlings grown in a pot were provided. Soil in the pot was drenched with a test solution adjusted to a predetermined concentration with a 10% aqueous acetone solution. After standing for three days, 10 larvae at the second instar were released on the rice seedlings. Thereafter, the pot was allowed to stand in a thermostatic chamber of 25° C. (light period 16 hr-dark period 8 hr). 3 days after the release, the number of survived larvae was measured, and the mortality of larvae was calculated by the same equation as in the Reference Test. The test was duplicated.

Myzus persicae Sulzer = test: Reference Test: cabbage leaf disk spraying treatment against Myzus persicae Sulzer; format: in vivo; settings: 20 ppm test solution spread over cabbage leaf disk, first instar larvae, three days after release, 25° C.
Excerpt: A leaf disk having a diameter of 2.8 cm was cut out from a cabbage grown in a pot and was placed in a 5.0 cm-Schale. Four adult aphids of Myzus persicae Sulzer were released in the Schale. One day after the release of the adult aphids, the adult aphids were removed. The number of larvae at the first instar born in the leaf disk was adjusted to 10, and 20 ppm of a test solution which had been prepared as a 50% aqueous acetone solution (0.05% Tween 20 added) was spread over the cabbage leaf disk. The cabbage leaf disk was then air dried. Thereafter, the Schale was lidded and was allowed to stand in a thermostatic chamber of 25° C. […] Mortality (%)={number of dead larvae/(number of survived larvae+number of dead larvae)}×100

[2] = tested on: Trialeurodes uaporariorum; test: Soil drenching treatment test on cucumber against Trialeurodes uaporariorum (Test Example 5); format: in vivo; settings: soil drenching of cucumber pot, 0.5 mg/seedling, larvae, 9 days after drenching
Method: Adults of Trialeurodes uaporariorum were released on cucumber seedlings, grown in a pot, for egg laying purposes for two days. 10 days after the start of egg laying, it was confirmed that larvae were hatched from the delivered eggs. The soil in the cucumber pot was drenched with 5 mL of a test solution adjusted to a predetermined concentration with a 10% aqueous acetone solution. The cucumber pot was allowed to stand in a thermostatic chamber of 25° C. (light period 16 hr-dark period 8 hr). 9 days after the drenching, the number of survived larvae was measured, and the mortality of larvae was calculated by the following equation. The test was duplicated. Mortality (%)={(number of larvae before treatment−number of survived larvae)/number of larvae before treatment}×100

Rhopalosiphum padi [3] = test: Root soaking treatment test on wheat seedlings against Rhopalosiphum padi (Test Example 3 and Comparative Tests); format: in vivo; settings: wheat seedling root soaked 72 hr in test solution (100 ppm), 20 μg/seedling, 25° C.
Method: The root of wheat seedlings 48 hr after seeding was soaked for 72 hr in a test solution (100 ppm) prepared as a 10% aqueous acetone solution. 72 hrs after the treatment, 10 larval Rhopalosiphum padi were released for each seedling. Thereafter, the seedlings were allowed to stand in a thermostatic chamber of 25° C. The number of parasites on stems and leaves was observed six days after the release, and the density index was calculated by the same equation as in Test Example 1. The test was duplicated.
For compounds 8 and 9 described in Table 6, a insecticidal effect against Rhopalosiphum padi was examined in the same manner as in Test Example 3.

Nephotettix cincticeps = test: Soil drenching treatment test on rice seedlings against Nephotettix cincticeps (Test Example 7); format: in vivo; settings: soil drenching of rice pot, 1.0 mg/seedling, second instar larvae, 3 days after release
Method: as §4, with “seedling.” for “seedlings.”

Plutella xylostella = settings: described in WO 2004/060065 and Applied and Environmental Microbiology (1995), 61(12), 4429-35; cited from earlier work
Tenebrio molitor = settings: described in WO 2004/060065 and Applied and Environmental Microbiology (1995), 61(12), 4429-35; cited from earlier work
Helicoverpa armiger = settings: described in WO 2004/060065 and Applied and Environmental Microbiology (1995), 61(12), 4429-35; cited from earlier work
[4] = Compound 4 0 mg/seedling, acephate 0.1 mg/seedling, imidacloprid 0.005 mg/seedling
[5] = Compound 4 0 mg/seedling, other insecticide alone (acephate 0.1 mg/seedling, imidacloprid 0.005 mg/seedling)
[6] = Compound 4 0 μg/seedling, acetamiprid 0.0078, acephate 0.5, imidacloprid 0.0078 μg/seedling
[7] = Compound 4 0 μg/seedling, other insecticide alone (acetamiprid 0.0078, acephate 0.5, imidacloprid 0.0078 μg/seedling)
[8] = Compound 4 0.05 mg/seedling, alone (—) or with acephate 0.1 mg/seedling or imidacloprid 0.005 mg/seedling
[9] = Compound 4 0.5 μg/seedling, alone (—) or with acetamiprid 0.0078, acephate 0.5 or imidacloprid 0.0078 μg/seedling

COP(=O)(NC(C)=O)SC (centres unmarked) [Acephate, acephate]
Theoretical value calculated by Colby's formula (Aphis gossypii; [4]): 70 | Preventive value (Aphis gossypii; [5]): 70 | Theoretical value calculated by Colby's formula (Rhopalosiphum padi [1]; [6]): 55.6 | Preventive value (Rhopalosiphum padi [1]; [7]): 55.6

C/C(=N\C#N)N(C)Cc1ccc(Cl)nc1 [Acetamiprid, acetamiprid]
Theoretical value calculated by Colby's formula (Rhopalosiphum padi [1]; [6]): 5.9 | Preventive value (Rhopalosiphum padi [1]; [7]): 5.9

CC1(COC(=O)C2CC2)C2C[C@H](O)[C@@]3(C)Oc4cc(-c5cccnc5)oc(=O)c4[C@H](O)C3[C@@]2(C)CC[C@@H]1OC(=O)C1CC1 (some centres unmarked) [Compound 4]
Mortality (%) (Laodelphax stratella): 34% | Theoretical value calculated by Colby's formula (Aphis gossypii; [8]): 0 | Preventive value (Aphis gossypii; [8]): 0 | Mortality (Myzus persicae Sulzer): 100% | Mortality (%) [2]: 67% | Theoretical value calculated by Colby's formula (Rhopalosiphum padi [1]; [9]): 0 | Preventive value (Rhopalosiphum padi [1]; [9]): 0 | Density index 6 days after release (Rhopalosiphum padi [3]): 5 | Mortality (%) (Nephotettix cincticeps): 60%

CC1(COC(=O)C2CC2)C2CC(=O)[C@@]3(C)Oc4cc(-c5cccnc5)oc(=O)c4[C@H](O)C3[C@@]2(C)CC[C@@H]1OC(=O)C1CC1 (some centres unmarked) [Compound 6]
Mortality (Myzus persicae Sulzer): 100% | Density index 6 days after release (Rhopalosiphum padi [3]): 0

CC1(COC(=O)C2CC2)C2CC[C@@]3(C)Oc4cc(-c5cccnc5)oc(=O)c4[C@H](O)C3[C@@]2(C)CC[C@@H]1OC(=O)C1CC1 (some centres unmarked) [Compound 7]
Mortality (Myzus persicae Sulzer): 100% | Density index 6 days after release (Rhopalosiphum padi [3]): 41

O=[N+]([O-])NC1=NCCN1Cc1ccc(Cl)nc1 [Imidacloprid, imidacloprid]
Theoretical value calculated by Colby's formula (Aphis gossypii; [4]): 16 | Preventive value (Aphis gossypii; [5]): 16 | Theoretical value calculated by Colby's formula (Rhopalosiphum padi [1]; [6]): 28.6 | Preventive value (Rhopalosiphum padi [1]; [7]): 28.6

pyripyropene A
insecticidal effect (Plutella xylostella): has insecticidal effect | insecticidal effect (Tenebrio molitor): has insecticidal effect | insecticidal effect (Helicoverpa armiger): has insecticidal effect
